What was measured:
[1] = system: prostate cancer (PC3); experiment: MTT antiproliferative assay, PC3; assay type: cell-based, human; details: 72 h
Source text: (§1) Ru3–Ru9 also show a certain selectivity for cancer cells over normal cells, and Ru2, Ru3, Ru5 and Ru9 show higher selectivity index (SI) values than the other complexes.
(§2) PA-BPP was then used to confirm the molecular targets of Ru5 by modifying it with a ‘minimalist’ biorthogonal handle-containing photo-cross-linker. Through our structure–activity relationship analysis and comparison with other ruthenium complexes utilizing phen as the auxiliary ligands with similar coordination structures (using cisplatin as a control), we propose that the β-carboline ligands play an important role in antiproliferative activity. To maintain the binding characteristics of the β-carboline moiety with the targeted biomolecules, we linked the photo-cross-linker to one of the auxiliary ligands of Ru5.

[2] = system: A549 xenograft; experiment: A549 xenograft nude mice model; assay type: in vivo
Protocol: Lastly, the in vivo anticancer activity of Ru5 was assessed via a A549 xenograft nude mice model (Fig. 5A). Mice were treated with PBS, cisplatin (5 mg kg^−1) or Ru5 (5 mg kg^−1) for 14 days, during which body weights and tumor volumes were monitored.
Figure 5. […] (A) Schematic illustration of in vivo therapeutic protocol. (B) Graphs of tumor volumes of nude mice after treatment with Ru5 (5 mg kg^−1), cisplatin (5 mg kg^−1) and PBS. The intratumoral injections were performed every 7 days. Data are presented as means ± SD, n = 5. (C) Immunohistochemical analysis of hematoxylin-eosin (H&E) staining in tumor sections from mice with different treatments. Scale bar: 50 μm. (D) Tumors separated from nude mice. (E) The average body weight of the mice in each group during the treatment process. Data are presented as means ± SD, n = 5. (F) H&E staining of the main organs from mice with different treatments. Scale bar: 100 μm.

[3] = system: lung adenocarcinoma (A549); experiment: MTT antiproliferative assay, A549; assay type: cell-based, human; details: 72 h
Source text: as §1, §2

[4] = system: malignant glioma (U87); experiment: MTT antiproliferative assay, U87; assay type: cell-based, human; details: 72 h
Source text: as §1, §2

[5] = system: A549 cells; experiment: Mitochondrial respiration (OCR) by Seahorse XF analyzer; assay type: cell-based, human; details: 5 μM
Source text: As Ru5 is located in mitochondria and inhibits ATPase related to mitochondrial respiration, we then evaluated its impact on oxygen consumption rate (OCR) using the Seahorse XF analyzer. Ru5 inhibits ATP-linked respiration, basal respiration and maximal respiration capacity, and it also increases the proton leak and alters non-mitochondrial respiration (Fig. 2A and Fig. S43). Accordingly, Ru5 treatment leads to an increase in the opening of the mitochondrial permeability transition pore (MPTP) of A549 in a concentration-dependent manner (Fig. 2B). […] The colocalization of the fluorescence of dihydrorhodamine 123 (DHR-123) with MitoTracker Deep Red (MTDR) indicates ROS are mainly generated in mitochondria (Fig. 2E).
Figure 2. […] (A) Impact of Ru5 (5 μM) on mitochondrial respiration of A549 cells measured by Seahorse. The OCR was measured under basal conditions, and after the sequential addition of oligomycin (1 μM), carbonyl cyanide 4-(trifluoromethoxy)phenylhydrazone (FCCP, 0.8 μM) and a mixture of rotenone (0.5 μM) and antimycin A (0.5 μM, R&A). […] The cells were treated with Ru5 for 6 h and analyzed by flow cytometry. λex = 488 nm, λem = 520 ± 20 nm. (C) Impact of Ru5 (5 μM) on MMP measured by JC-1 staining. […]

F[P-](F)(F)(F)(F)F.F[P-](F)(F)(F)(F)F.[Ru+2].c1ccc2c(c1)[nH]c1c(-c3ncc[nH]3)nccc12.c1cnc2c(c1)ccc1cccnc12.c1cnc2c(c1)ccc1cccnc12 [Ru5]
IC50 [1]: 2.7 ± 0.4 µM | Body weight loss ([2]; 5 mg kg−1, 14 days): no significant body weight loss | Organ damage (H&E staining of the main organs) ([2]; 5 mg kg−1, 14 days): no significant | Tumor inhibition compared with cisplatin and PBS ([2]; 5 mg kg−1, 14 days): better tumor inhibition | Tumor growth inhibitory rate ([2]; 5 mg kg−1, intratumoral injection every 7 days, 14 days, compared with the control groups): ~89.6% | IC50 [3]: 2.1 ± 0.8 µM | IC50 [4]: 14.7 ± 0.7 µM | ATP-linked respiration, basal respiration and maximal respiration capacity (OCR) [5]: inhibits

Reference: publication PMC11304990, “Identification of mitochondrial ATP synthase as the cellular target of Ru-polypyridyl-β-carboline complexes by affinity-based protein profiling” (National Science Review, 2024)
